Data on 18 compounds can be found in patent US8133998B2, “Bicyclic pyrimidine derivatives as calcium channel blockers” (Zalicus Pharmaceuticals, Ltd., priority 2007, dated 2012).

The target of assay [1] is T1, human α1H T-type channels (Homo sapiens, UniProt O95180).
T1 construct: expressed in transfected cells; host or cells: HEK 293
As to the kind of experiment: T-type calcium channel block, whole cell patch clamp in HEK cells. In kind it is cell-based. The note with it: HEK cells stably expressing human α1H; measured at 1 μM drug; mainly non-inactivated protocol. Here is the method: (§1) T-type calcium channel blocking activity was assayed in human embryonic kidney cells, HEK 293, stably transfected with the T-type calcium channel subunits. Briefly, cells were cultured in Dulbecco's modified eagle medium (DMEM) supplemented with 10% fetal bovine serum, 200 U/ml penicillin and 0.2 mg/ml streptomycin at 37° C. with 5% CO2. At 85% confluency cells were split with 0.25% trypsin/1 mM EDTA and plated at 10% confluency on glass coverslips. At 12 hours the medium was replaced and the cells stably transfected using a standard calcium phosphate protocol and the appropriate calcium channel cDNA's. Fresh DMEM was supplied and the cells transferred to 28° C./5% CO2. Cells were incubated for 1 to 2 days prior to whole cell recording.
(§2) Standard patch-clamp techniques were employed to identify blockers of T-type currents. Briefly, previously described HEK cell lines stably expressing human α1G, α1H and α1I T-type channels were used for all the recordings (passage #: 4-20, 37° C., 5% CO2). Whole cell patch clamp experiments were performed using an Axopatch 200B amplifier (Axon Instruments, Burlingame, Calif.) linked to a personal computer equipped with pCLAMP software. Data were analyzed using Clampfit (Axon Instruments) and SigmaPlot 4.0 (Jandel Scientific). To obtain T-type currents, plastic dishes containing semi-confluent cells were positioned on the stage of a ZEISS AXIOVERT S100 microscope after replacing the culture medium with external solution (see below). Whole-cell patches were obtained using pipettes (borosilicate glass with filament, O.D.: 1.5 mm, I.D.: 0.86 mm, 10 cm length), fabricated on a SUTTER P-97 puller with resistance values of ˜5 MΩ (see below for internal solution).
(§3) In the non-inactivating protocol, the holding potential is set at −110 mV and with a pre-pulse at −100 mV for 1 second prior to the test pulse at −40 mV for 50 ms. In the inactivation protocol, the pre-pulse is at approximately −85 mV for 1 second, which inactivates about 15% of the T-type channels.
(§4) Test compounds were dissolved in external solution, 0.1-0.01% DMSO. After ˜10 min rest, they were applied by gravity close to the cell using a WPI microfil tubing. The “non-inactivated” pre-pulse was used to examine the resting block of a compound. The “inactivated” protocol was employed to study voltage-dependent block. However, the initial data shown below were mainly obtained using the non-inactivated protocol only. Kd values are shown for various compounds of the invention in Table 4 measured at 1 μM for the drug of interest except for compound 18 which was measured at 200 nM.
(In general: The patch-clamp technique gives a direct electrical read-out from membranes.)

The target in assay [2] is T2, human α1G T-type channels (Homo sapiens, UniProt O43497).
T2 construct: expressed in transfected cells; host or cells: HEK 293
T2 sequence (O43497 whole entry): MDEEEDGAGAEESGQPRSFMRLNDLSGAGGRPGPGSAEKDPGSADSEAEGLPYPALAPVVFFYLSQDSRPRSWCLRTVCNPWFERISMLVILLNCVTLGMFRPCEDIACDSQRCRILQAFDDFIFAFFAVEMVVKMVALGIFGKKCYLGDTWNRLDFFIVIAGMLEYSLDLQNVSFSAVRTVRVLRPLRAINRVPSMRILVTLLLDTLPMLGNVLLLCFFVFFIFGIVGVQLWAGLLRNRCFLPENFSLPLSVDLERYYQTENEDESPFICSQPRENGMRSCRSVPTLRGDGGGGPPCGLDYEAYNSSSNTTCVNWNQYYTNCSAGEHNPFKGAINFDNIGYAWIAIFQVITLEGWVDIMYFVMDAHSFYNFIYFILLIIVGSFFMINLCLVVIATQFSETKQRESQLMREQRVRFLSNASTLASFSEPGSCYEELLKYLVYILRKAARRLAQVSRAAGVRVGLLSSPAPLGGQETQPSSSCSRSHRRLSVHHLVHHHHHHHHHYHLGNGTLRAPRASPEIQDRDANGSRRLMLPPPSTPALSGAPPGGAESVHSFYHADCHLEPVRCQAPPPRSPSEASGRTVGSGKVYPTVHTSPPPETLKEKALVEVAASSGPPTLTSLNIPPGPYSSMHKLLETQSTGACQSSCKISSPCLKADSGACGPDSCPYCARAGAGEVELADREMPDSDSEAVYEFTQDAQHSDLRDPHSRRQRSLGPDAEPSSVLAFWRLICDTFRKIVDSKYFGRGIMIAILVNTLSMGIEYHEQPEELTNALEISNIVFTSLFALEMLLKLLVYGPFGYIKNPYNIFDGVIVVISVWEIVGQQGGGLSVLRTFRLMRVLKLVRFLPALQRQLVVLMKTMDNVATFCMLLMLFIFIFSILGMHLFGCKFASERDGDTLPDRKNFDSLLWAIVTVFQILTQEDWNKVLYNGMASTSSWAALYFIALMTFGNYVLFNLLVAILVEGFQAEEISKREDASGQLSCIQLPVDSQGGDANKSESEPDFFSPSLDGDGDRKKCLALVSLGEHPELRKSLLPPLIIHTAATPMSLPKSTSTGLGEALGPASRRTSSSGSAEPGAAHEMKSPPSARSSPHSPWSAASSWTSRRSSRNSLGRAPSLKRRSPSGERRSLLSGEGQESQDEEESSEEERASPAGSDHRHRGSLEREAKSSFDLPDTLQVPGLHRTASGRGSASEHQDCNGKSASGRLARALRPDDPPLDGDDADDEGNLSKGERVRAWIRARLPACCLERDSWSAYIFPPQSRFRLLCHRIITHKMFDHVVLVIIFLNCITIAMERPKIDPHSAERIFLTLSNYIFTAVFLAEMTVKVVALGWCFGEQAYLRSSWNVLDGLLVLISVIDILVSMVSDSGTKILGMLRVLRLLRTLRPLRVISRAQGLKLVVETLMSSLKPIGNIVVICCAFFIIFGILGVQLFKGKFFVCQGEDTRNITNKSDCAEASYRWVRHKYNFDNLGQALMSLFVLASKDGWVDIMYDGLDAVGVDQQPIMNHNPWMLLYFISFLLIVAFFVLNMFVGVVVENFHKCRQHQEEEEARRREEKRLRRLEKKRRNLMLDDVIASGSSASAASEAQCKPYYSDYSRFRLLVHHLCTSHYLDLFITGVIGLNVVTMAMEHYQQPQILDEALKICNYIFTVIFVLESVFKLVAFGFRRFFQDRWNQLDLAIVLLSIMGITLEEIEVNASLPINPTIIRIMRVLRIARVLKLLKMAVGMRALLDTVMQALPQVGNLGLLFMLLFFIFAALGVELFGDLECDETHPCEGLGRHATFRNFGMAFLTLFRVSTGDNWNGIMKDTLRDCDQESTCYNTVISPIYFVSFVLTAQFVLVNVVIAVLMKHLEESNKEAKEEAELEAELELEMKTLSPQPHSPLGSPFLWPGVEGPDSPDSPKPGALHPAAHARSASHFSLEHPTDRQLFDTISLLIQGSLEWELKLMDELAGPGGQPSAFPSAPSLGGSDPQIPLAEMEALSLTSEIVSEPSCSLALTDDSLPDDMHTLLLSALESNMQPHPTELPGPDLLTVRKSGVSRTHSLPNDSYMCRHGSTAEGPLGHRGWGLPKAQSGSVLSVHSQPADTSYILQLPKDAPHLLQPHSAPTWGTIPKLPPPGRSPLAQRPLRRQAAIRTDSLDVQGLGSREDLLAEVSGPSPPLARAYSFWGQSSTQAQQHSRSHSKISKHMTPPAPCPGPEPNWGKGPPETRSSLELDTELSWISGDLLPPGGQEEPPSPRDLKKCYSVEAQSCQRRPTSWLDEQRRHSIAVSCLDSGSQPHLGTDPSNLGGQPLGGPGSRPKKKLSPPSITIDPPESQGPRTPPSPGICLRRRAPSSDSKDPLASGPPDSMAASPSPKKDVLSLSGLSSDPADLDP
Described as above. The format is cell-based. To be noted: HEK cells stably expressing human α1G; measured at 1 μM drug; mainly non-inactivated protocol. Here is the method: as §1, §2, §3, §4

Assay [3] deals with T3, human α1I T-type channels (Homo sapiens, UniProt Q9P0X4).
T3 construct: expressed in transfected cells; host or cells: HEK 293
The assay is described as above. The note with it: HEK cells stably expressing human α1I; measured at 1 μM drug; mainly non-inactivated protocol. The format is cell-based. Here is the method:
as §1, §2, §3, §4

For assay [4], the system named is spinal nerve ligation model of neuropathic pain. The note with it: rats; cited from earlier work.
In assay [5] the test system is T-type over L-type channels. The note with it: cited from earlier work.

SMILES strings stand for the structures. Bounds are passed on as bounds.

T1 sequence (O95180 whole entry): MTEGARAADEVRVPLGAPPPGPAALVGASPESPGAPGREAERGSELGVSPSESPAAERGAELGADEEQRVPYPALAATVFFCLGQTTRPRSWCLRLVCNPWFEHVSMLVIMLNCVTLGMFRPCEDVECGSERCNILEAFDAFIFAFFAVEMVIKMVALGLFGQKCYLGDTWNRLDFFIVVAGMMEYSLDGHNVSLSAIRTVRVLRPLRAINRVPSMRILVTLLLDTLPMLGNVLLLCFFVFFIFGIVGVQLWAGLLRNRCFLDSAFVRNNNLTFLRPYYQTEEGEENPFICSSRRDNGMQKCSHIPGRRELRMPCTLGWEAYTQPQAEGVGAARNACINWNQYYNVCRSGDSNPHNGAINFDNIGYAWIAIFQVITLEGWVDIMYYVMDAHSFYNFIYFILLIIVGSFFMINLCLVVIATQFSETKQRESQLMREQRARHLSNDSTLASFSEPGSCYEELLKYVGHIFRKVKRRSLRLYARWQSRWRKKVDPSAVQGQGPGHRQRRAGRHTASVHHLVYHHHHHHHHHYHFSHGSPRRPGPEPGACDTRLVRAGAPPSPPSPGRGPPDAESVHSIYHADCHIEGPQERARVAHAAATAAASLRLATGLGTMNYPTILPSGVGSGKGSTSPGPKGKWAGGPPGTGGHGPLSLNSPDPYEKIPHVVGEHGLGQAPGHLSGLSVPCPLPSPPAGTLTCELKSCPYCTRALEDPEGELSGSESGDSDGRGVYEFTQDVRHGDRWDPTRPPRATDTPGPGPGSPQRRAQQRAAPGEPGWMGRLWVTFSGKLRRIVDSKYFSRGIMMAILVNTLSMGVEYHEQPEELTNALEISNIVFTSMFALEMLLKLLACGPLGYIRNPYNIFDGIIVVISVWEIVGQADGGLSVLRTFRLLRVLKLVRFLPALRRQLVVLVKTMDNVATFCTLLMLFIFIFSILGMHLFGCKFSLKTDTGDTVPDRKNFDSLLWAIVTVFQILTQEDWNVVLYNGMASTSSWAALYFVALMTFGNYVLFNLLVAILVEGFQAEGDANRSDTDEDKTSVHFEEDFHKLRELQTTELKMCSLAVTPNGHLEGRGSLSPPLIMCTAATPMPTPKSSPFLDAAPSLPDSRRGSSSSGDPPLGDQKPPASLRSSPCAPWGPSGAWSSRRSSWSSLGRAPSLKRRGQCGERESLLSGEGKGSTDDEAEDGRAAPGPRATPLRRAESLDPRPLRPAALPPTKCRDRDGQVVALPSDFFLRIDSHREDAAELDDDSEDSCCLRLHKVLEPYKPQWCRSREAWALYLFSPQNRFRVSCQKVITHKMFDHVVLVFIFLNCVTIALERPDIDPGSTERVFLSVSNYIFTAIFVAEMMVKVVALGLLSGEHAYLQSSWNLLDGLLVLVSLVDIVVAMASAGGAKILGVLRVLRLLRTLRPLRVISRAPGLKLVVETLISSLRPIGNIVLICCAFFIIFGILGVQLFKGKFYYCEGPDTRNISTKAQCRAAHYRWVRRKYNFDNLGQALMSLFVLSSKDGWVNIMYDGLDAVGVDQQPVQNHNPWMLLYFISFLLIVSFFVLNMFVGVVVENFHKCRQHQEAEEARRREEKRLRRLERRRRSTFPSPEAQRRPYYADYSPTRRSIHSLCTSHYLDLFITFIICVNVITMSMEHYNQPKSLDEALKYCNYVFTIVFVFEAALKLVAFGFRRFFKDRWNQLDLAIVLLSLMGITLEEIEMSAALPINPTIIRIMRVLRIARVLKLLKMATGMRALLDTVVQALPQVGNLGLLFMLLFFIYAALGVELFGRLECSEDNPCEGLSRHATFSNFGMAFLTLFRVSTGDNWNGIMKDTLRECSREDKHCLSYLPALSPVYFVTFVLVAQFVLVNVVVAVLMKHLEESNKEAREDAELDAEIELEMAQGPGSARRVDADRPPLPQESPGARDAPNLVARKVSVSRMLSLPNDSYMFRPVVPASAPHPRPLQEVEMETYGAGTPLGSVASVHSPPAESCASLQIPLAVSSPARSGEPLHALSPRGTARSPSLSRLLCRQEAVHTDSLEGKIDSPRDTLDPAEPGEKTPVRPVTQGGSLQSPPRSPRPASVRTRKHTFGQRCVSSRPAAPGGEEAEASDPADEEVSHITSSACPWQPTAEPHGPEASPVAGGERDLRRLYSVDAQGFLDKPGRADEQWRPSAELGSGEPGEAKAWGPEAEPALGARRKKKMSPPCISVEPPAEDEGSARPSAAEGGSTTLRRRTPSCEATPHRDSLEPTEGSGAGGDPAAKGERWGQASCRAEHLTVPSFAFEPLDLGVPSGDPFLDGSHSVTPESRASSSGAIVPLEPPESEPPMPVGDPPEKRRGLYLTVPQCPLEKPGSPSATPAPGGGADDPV

One may read the Kd as a measure of binding affinity in units of concentration. Consider `Cc1c(C(=O)N2CCN(c3ccc(Cl)c(Cl)c3)CC2)sc2ncn(CC(=O)N3CCCC3)c(=O)c12` [Compound 135, 6-(4-(3,4-dichlorophenyl)piperazine-1-carbonyl)-5-methyl-3-(2-oxo-2-(pyrrolidin-1-yl)ethyl)thieno[2,3-d]pyri-midin-4(3H)-one], for which the Kd in assay [1] was found to be 330 nM; in assay [2] it was 9900 nM; in assay [3], 1380 nM.
On to `Cc1c(C(=O)N2CCN(c3ccccc3F)CC2)sc2ncn(CC(=O)Nc3cc(C(F)(F)F)cc(C(F)(F)F)c3)c(=O)c12` [Compound 64, N-(3,5-bis(trifluoromethyl)phenyl)-2-(6-(4-(2-fluorophenyl)piperazine-1-carbonyl)-5-methyl-4-oxothieno[2,3-d]pyrimidin-3(4H)-yl)acetamide], for which the Kd in assay [1] worked out at 700 nM; in assay [2], 200 nM; in assay [3] it was 80 nM.
Regarding `Cc1c(C(=O)N2CCN(c3cc(C(F)(F)F)cc(C(F)(F)F)c3)CC2)sc2ncn(CC(=O)Nc3ccccc3)c(=O)c12` [Compound 53, 2-(6-(4-(3,5-bis(trifluoromethyl)phenyl)piperazine-1-carbonyl)-5-methyl-4-oxothieno[2,3-d]pyrimidin-3(4H)-yl)-N-phenylacetamide], the Kd in assay [1] is 1040 nM; in assay [2], 190 nM; in assay [3], 580 nM.
For `Cc1c(C(=O)N2CCN(c3ccccc3)CC2)sc2ncn(CC(=O)Nc3ccccc3)c(=O)c12` [Compound 52, 2-(5-methyl-4-oxo-6-(4-phenylpiperazine-1-carbonyl)thieno[2,3-d]pyrimidin-3(4H)-yl)-N-phenylacetamide] the same measures were 350 nM, 1010 nM and 8790 nM.
For `Cc1c(C(=O)N2CCN(c3ccccc3)CC2)sc2ncn(C(C)C(=O)NC3CCCCC3)c(=O)c12` (stereo not drawn) [Compound 33, N-cyclohexyl-2-(5-methyl-4-oxo-6-(4-phenylpiperazine-1-carbonyl)thieno[2,3-d]pyrimidin-3(4H)-yl)propanamide] the same measures were 350 nM, 16500 nM and 5130 nM.
The corresponding values for `Cc1c(C(=O)N2CCN(c3cccc(F)c3)CC2)sc2ncn(CC(=O)NC3CCCCC3)c(=O)c12` [Compound 21, N-cyclohexyl-2-(6-(4-(3-fluorophenyl)piperazine-1-carbonyl)-5-methyl-4-oxothieno[2,3-d]pyrimidin-3(4H)-yl)acetamide] are 190 nM, 610 nM and 5200 nM.
With `Cc1c(C(=O)N2CCN(c3cccc(Cl)c3)CC2)sc2ncn(CC(=O)NC3CCCC3)c(=O)c12` [Compound 37, 2-(6-(4-(3-chlorophenyl)piperazine-1-carbonyl)-5-methyl-4-oxothieno[2,3-d]pyrimidin-3(4H)-yl)-N-cyclopentylacetamide], the equilibrium dissociation constant (Kd) amounted to 170 nM in assay [1], 300 nM in assay [2] and 3290 nM in assay [3].
`Cc1c(C(=O)N2CCN(c3ccccc3F)CC2)sc2ncn(CC(=O)Nc3cccc(C(F)(F)F)c3)c(=O)c12` [Compound 62, 2-(6-(4-(2-fluorophenyl)piperazine-1-carbonyl)-5-methyl-4-oxothieno[2,3-d]pyrimidin-3(4H)-yl)-N-(3-(trifluoromethyl)phenyl)acetamide]: the dissociation constant Kd in assay [1] is 800 nM; in assay [2], 290 nM; in assay [3] it was 340 nM.
The corresponding values for `CCN(CC)C(=O)Cn1cnc2sc(C(=O)N3CCN(c4ccc(C(F)(F)F)cc4)CC3)c(C)c2c1=O` [Compound 10, N,N-diethyl-2-(5-methyl-4-oxo-6-(4-(4-(trifluoromethyl)phenyl)piperazine-1-carbonyl)thieno[2,3-d]pyrimidin-3(4H)-yl)acetamide] are 300 nM, 1220 nM and above 31300 nM.
For `Cc1c(C(=O)N2CCN(c3ccc(Cl)cc3)CC2)sc2ncn(CC(=O)NC3CCCC3)c(=O)c12` [Compound 42, 2-(6-(4-(4-chlorophenyl)piperazine-1-carbonyl)-5-methyl-4-oxothieno[2,3-d]pyrimidin-3(4H)-yl)-N-cyclopentylacetamide] the same measures were 280 nM, 570 nM and 3840 nM.
The corresponding values for `CCN(CC)C(=O)Cn1cnc2sc(C(=O)N3CCN(c4ccc(Cl)c(Cl)c4)CC3)c(C)c2c1=O` [Compound 6, 2-(6-(4-(3,4-dichlorophenyl)piperazine-1-carbonyl)-5-methyl-4-oxothieno[2,3-d]pyrimidin-3(4H)-yl)-N,N-diethylacetamide] are 340 nM, 950 nM and 9670 nM.
In the case of `CCC1(C)CC(=O)NC1=O` (stereo not drawn) [ethosuximide], the “anti-hyperalgesic activity in the spinal nerve ligation model of neuropathic pain” value in assay [4] was “anti-hyperalgesic activity”.
Take `Cc1c(C(=O)N2CCN(c3ccccc3)CC2)sc2ncn(CC(=O)Nc3cc(F)cc(F)c3)c(=O)c12` [Compound 55, 2-(6-(4-phenylpiperazine-1-carbonyl)-5-methyl-4-oxothieno[2,3-d]pyrimidin-3(4H)-yl)-N-(3,5-difluorophenyl)acetamide]: the Kd is 380 nM in assay [1], 240 nM in assay [2] and above 950 nM in assay [3].
The corresponding values for `Cc1c(C(=O)N2CCN(c3ccc(Cl)c(C(F)(F)F)c3)CC2)sc2ncn(CC(=O)NC3CCCC3)c(=O)c12` [Compound 38, 2-(6-(4-(4-chloro-3-(trifluoromethyl)phenyl)piperazine-1-carbonyl)-5-methyl-4-oxothieno[2,3-d]pyrimidin-3(4H)-yl)-N-cyclopentylacetamide] are 100 nM, 100 nM and 2140 nM.
The corresponding values for `Cc1c(C(=O)N2CCN(c3cccc(Cl)c3)CC2)sc2ncn(CC(=O)NC3CCCCC3)c(=O)c12` [Compound 24, 2-(6-(4-(3-chlorophenyl)piperazine-1-carbonyl)-5-methyl-4-oxothieno[2,3-d]pyrimidin-3(4H)-yl)-N-cyclohexylacetamide] are 90 nM, 300 nM and 1520 nM.
`COCC(=O)O[C@]1(CCN(C)CCCc2nc3ccccc3[nH]2)CCc2cc(F)ccc2[C@@H]1C(C)C` [Mibefradil]: in assay [4], the “anti-hyperalgesic activity in the spinal nerve ligation model of neuropathic pain” value is “anti-hyperalgesic activity”. The “selective for T-type over L-type channels” value in assay [5] is given as 10-30 fold.
Regarding `Cc1c(C(=O)N2CCN(c3cccc(Cl)c3)CC2)sc2ncn(CC(=O)N3CCCC3)c(=O)c12` [Compound 73, 6-(4-(3-chlorophenyl)piperazine-1-carbonyl)-5-methyl-3-(2-oxo-2-(pyrrolidin-1-yl)ethyl)thieno[2,3-d]pyrimidin-4(3H)-one], the results for the Kd in assay [1], in assay [2] and in assay [3] were 220 nM, 1460 nM and 8800 nM, respectively.
The corresponding values for `Cc1c(C(=O)N2CCCCC2)sc2ncn(CC(=O)Nc3cc(C(F)(F)F)cc(C(F)(F)F)c3)c(=O)c12` [Compound 69, N-(3,5-bis(trifluoromethyl)phenyl)-2-(5-methyl-4-oxo-6-(piperidine-1-carbonyl)thieno[2,3-d]pyrimidin-3(4H)-yl)acetamide] are 2730 nM, 230 nM and 710 nM.
